One experiment relates to HCT-116. In words: Cytotoxicity against human HCT116 cells after 120 hrs by hemocytometer. The experiment is classed as functional, cell-based. Particulars: HCT-116, 120 h.
The test system of another experiment is KB. In words: Cytotoxicity against human KB cells. The experiment is classed as functional, cell-based.

Results on 3 compounds are retold here after ChEMBL document CHEMBL3232787, “Lipopeptides from the tropical marine cyanobacterium Symploca sp” (J Nat Prod, 2014).

Usually IC50 stands for the concentration needed to halve the response being measured. Regarding `CC[C@H](C)[C@@H](NC(=O)[C@H](CCC(N)=O)N(C)C(=O)[C@H](OC(=O)[C@@H](O)C(C)C)C(C)C)C(=O)N[C@@H](C)C(=O)N(C)[C@H](Cc1ccccc1)C(=O)N1CCC[C@H]1C(=O)OC`, the IC50 in the experiment on HCT-116 was greater than 25 µM.
For `CC[C@H](C)[C@H](NC(=O)[C@H](CCC(N)=O)N(C)C(=O)[C@H](OC(=O)[C@@H](O)C(C)C)C(C)C)C(=O)N[C@@H](C)C(=O)N[C@H](Cc1ccccc1)C(=O)N1CCC[C@H]1C(=O)OC`, the IC50 in the experiment on HCT-116 stood at 25 µM.
`CC[C@H](C)[C@H](O)C(=O)N[C@@H](CC(C)C)C(=O)N(C)[C@@H](CCC(N)=O)C(=O)N[C@H](C(=O)NCC(=O)N(C)[C@H](Cc1ccccc1)C(=O)N1CCC[C@H]1C(=O)OC)[C@@H](C)CC` [TASIAMIDE] showed an IC50 in the experiment with KB of 0.48 µM.
